Experimental data taken from article PMC12189828, “Substitution of Proline Residues by 4-Fluoro-L-Proline Affects the Mechanism of the Proline-Rich Antimicrobial Peptide Api137” (Antibiotics, 2025).
Converted amounts (≈) assume the structure as drawn. “And” between values parts separate entries of the source, which are not always exact repeats. Equal values may be shown once. Where a SMILES comes first, the peptide text is derived from it. The star is where a group is joined. Orn(α-tetramethylguanidino) = CN(C)C(=N[C@@H](CCCN)C(=O)*)N(C)C

What was measured:
[1] = system: in vitro expression of sfGFP in the presence of RF1; assay: In vitro transcription-translation (iTT) assay of sfGFP in the presence of RF1; type: biochemical; details: peptide 5 µmol/L, RF1, 37 °C, 2 h, fluorescence; normalized to absence of PrAMPs; n = 3
How it was run: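 Cell-free PURExpress ΔRF123 system was supplemented with 50-fold-diluted RF1 and a sfGFP template ending in a UAG stop codon (35 ng, 0.1325 pmol). PrAMP was added from a 50 or 0 µmol/L aqueous solution. Reactions ran at 37 °C for 2 h, with fluorescence (ex 485/em 535 nm) read every 10 min.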

mice = details: cited from earlier work
E. coli RN31 [2] = assay: Growth inhibition of E. coli RN31 during 90 min exponential growth phase; type: cell-based, Escherichia coli; details: E. coli RN31, 33% TSB, peptide 8 µg/mL, 90 min, OD600; two biological replicates (n = 2)
eukaryotic cell lines = details: cited from earlier work
E. coli RN31 [3] = assay: Minimum inhibitory concentration (MIC) against E. coli RN31; type: cell-based, Escherichia coli; details: E. coli RN31, 33% TSB, 37 °C overnight (~16 h), 7.5 × 10^6 bacteria/mL; two independent experiments with two replicates each (n = 4)
Description: Minimum inhibitory concentrations were determined for E. coli RN31 grown in 33% TSB (37 °C, 200 rpm) with a starting OD600 of 0.05. After four hours, the cell count was adjusted to 1.5 × 10^7 bacteria/mL. In a transparent 96-well plate, the peptides were diluted in a two-fold dilution series in 33% TSB over 10 dilution steps, and E. coli was added to obtain a final cell count of 7.5 × 10^6 bacteria/mL and incubated at 37 °C overnight. OD600 was determined using a PARADIGM^TM microplate reader (Beckman Coulter, Salzburg, Austria) before and after cultivation. The MIC was defined as the lowest peptide concentration preventing visible bacterial growth.

[4] = system: 50S subunit assembly / 70S ribosome in E. coli RN31; assay: Ribosome profile analysis (RPA), sucrose gradient of E. coli RN31 lysate; type: cell-based, Escherichia coli; details: 90 min

CC[C@H](C)[C@H](NC(=O)[C@H](Cc1ccc(O)cc1)NC(=O)[C@@H](NC(=O)[C@@H]1CCCN1C(=O)[C@H](CCCNC(=N)N)NC(=O)[C@H](CC(N)=O)NC(=O)[C@H](CC(N)=O)NC(=O)[C@H](CCCN)N=C(N(C)C)N(C)C)C(C)C)C(=O)N1CCC[C@H]1C(=O)N[C@@H](CCCNC(=N)N)C(=O)N1CCC[C@H]1C(=O)N[C@@H](CCCNC(=N)N)C(=O)N1CCC[C@H]1C(=O)N1CCC[C@H]1C(=O)N[C@@H](Cc1c[nH]cn1)C(=O)N1CCC[C@H]1C(=O)N[C@@H](CCCNC(=N)N)C(=O)N[C@@H](CC(C)C)C(=O)O [Api137] ({Orn(α-tetramethylguanidino)}-NNRPVYIPRPRPPHPRL-OH; N-terminus and C-terminus assumed)
Residual iTT (sfGFP expression relative to no PrAMP) [1]: 22% and 22 ± 6.2%
tolerability in mice (mice): well tolerated
reduction of bacterial growth vs untreated control (E. coli RN31 [2]): 70%
cytotoxicity to eukaryotic cell lines (eukaryotic cell lines): virtually non-toxic
MIC (E. coli RN31 [3]): 4 µg/mL (≈ 1.75 µM)
RPA [pre-50S formation] ([4]; E. coli RN31, 33% TSB, peptide 8 µg/mL, 5–25% sucrose gradient, n = 2 (Api137 n = 7)): yes
70S peak (area) relative to untreated control ([4]; E. coli RN31, peptide 8 µg/mL, sucrose gradient profile): ~ 50%
